ChEMBL document CHEMBL1201862, “PubChem BioAssay data set” (2004)
“And” between values parts separate entries of the source, which are not always exact repeats. Equal entries are not always repeated.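 Values below derive from 48-hour exposures of cells grown in 96-well plates, with endpoints linearly interpolated between the two concentrations bracketing the appropriate inhibition level. GI50 = concentration required for 50% inhibition of growth.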 The source made the active and inactive calls. No stated cut-off is given here; in the data, active = GI50 up to about 1.1 µM and inactive = higher.

Experiments:
Test in all cases: growth of human tumour cells (NCI), 48 h
TK-10 = system: TK-10
SK-MEL-2 = system: SK-MEL-2
SK-MEL-28 = system: SK-MEL-28
UO-31 = system: UO-31
Hs-578T = system: Hs-578T
SN12C = system: SN12C
SNB-75 = system: SNB-75
NCI-H460 = system: NCI-H460
IGROV-1 = system: IGROV-1
A498 = system: A498
OVCAR-3 = system: OVCAR-3
COLO 205 = system: COLO 205
Malme-3M = system: Malme-3M
T47D = system: T47D
MOLT-4 = system: MOLT-4
RXF 393 = system: RXF 393
HCT-15 = system: HCT-15
SK-MEL-5 = system: SK-MEL-5
HT-29 = system: HT-29
SF-539 = system: SF-539

Measured: GI50

CN(Cc1c[n+]([O-])c2nc(N)nc(N)c2n1)c1ccc(C(=O)NC23CC4CC(CC(C4)C2)C3)cc1
inactive: TK-10 > 100 µM | SK-MEL-2 > 100 µM | SK-MEL-28 23.1 µM | UO-31 > 100 µM | Hs-578T 10.6 µM | SN12C > 100 µM | SNB-75 20.2 µM | NCI-H460 > 100 µM | IGROV-1 54.3 µM | A498 13.5 µM | OVCAR-3 > 100 µM | COLO 205 > 100 µM | Malme-3M 78.2 µM | T47D 75.2 µM | MOLT-4 32.7 µM | RXF 393 31.2 µM | SK-MEL-5 34.7 µM
> 100 µM: HCT-15

S=C(Nc1ccc2c(c1)Cc1ccccc1-2)Nc1ccc2c(c1)Cc1ccccc1-2
inactive: TK-10 > 100 µM | SK-MEL-28 > 100 µM | UO-31 > 100 µM | Hs-578T > 100 µM | SN12C > 100 µM | NCI-H460 > 100 µM | IGROV-1 > 100 µM | A498 > 100 µM | OVCAR-3 > 100 µM | COLO 205 > 100 µM | Malme-3M > 100 µM | HT-29 > 100 µM | T47D > 100 µM | MOLT-4 15 µM | RXF 393 > 100 µM | SK-MEL-5 > 100 µM
> 100 µM: HCT-15

CC1(C)O[C@H](C(=O)O)[C@@H](C(=O)O)O1
> 100 µM: HCT-15
inactive: TK-10 > 100 µM | SK-MEL-2 > 100 µM | SK-MEL-28 > 100 µM | Hs-578T > 100 µM | SN12C > 100 µM | SNB-75 > 100 µM | SF-539 > 100 µM | NCI-H460 > 100 µM | IGROV-1 > 100 µM | A498 > 100 µM | COLO 205 > 100 µM | Malme-3M > 100 µM | HT-29 > 100 µM | T47D > 100 µM | MOLT-4 > 100 µM | RXF 393 > 100 µM | SK-MEL-5 > 100 µM

C=C(C)COC(=O)COCC(=O)OCC(=C)C
inactive: TK-10 > 100 µM | SK-MEL-28 > 100 µM | UO-31 > 100 µM | Hs-578T > 100 µM | SN12C > 100 µM | SNB-75 > 100 µM | NCI-H460 > 100 µM | IGROV-1 > 100 µM | A498 > 100 µM | OVCAR-3 > 100 µM | COLO 205 > 100 µM | Malme-3M > 100 µM | HT-29 > 100 µM | T47D > 100 µM | MOLT-4 > 100 µM | RXF 393 > 100 µM | SK-MEL-5 > 100 µM
> 100 µM: HCT-15

O=C(Cc1ccc(Cl)c(Cl)c1)NCC1(N2CCCCC2)CCCCC1
inactive: TK-10 28.8 µM | SK-MEL-2 46.1 µM | UO-31 27.1 µM | Hs-578T 52.2 µM | SN12C 66.8 µM | NCI-H460 36.8 µM | IGROV-1 > 100 µM | A498 60.7 µM | OVCAR-3 86.5 µM | Malme-3M 21.3 µM | HT-29 26.1 µM | T47D 21.1 µM | MOLT-4 35.5 µM | RXF 393 21.6 µM
38.7 µM: HCT-15

NNS(=O)(=O)c1cc(C(=O)O)cc(C(=O)O)c1
active: Hs-578T 1.09 µM
inactive: TK-10 > 100 µM | SK-MEL-2 > 100 µM | SK-MEL-28 > 100 µM | UO-31 > 100 µM | SN12C > 100 µM | SF-539 > 100 µM | NCI-H460 > 100 µM | IGROV-1 > 100 µM | A498 > 100 µM | OVCAR-3 > 100 µM | COLO 205 > 100 µM | Malme-3M > 100 µM | HT-29 > 100 µM | T47D > 100 µM | MOLT-4 > 100 µM | RXF 393 > 100 µM | SK-MEL-5 > 100 µM
> 100 µM: HCT-15

N#Cc1c(N2CCCC2)nsc1Nc1ccccc1
> 100 µM: HCT-15
inactive: TK-10 > 100 µM | SK-MEL-2 > 100 µM | SK-MEL-28 > 100 µM | UO-31 > 100 µM | Hs-578T > 100 µM | SN12C > 100 µM | SNB-75 > 100 µM | SF-539 > 100 µM | NCI-H460 > 100 µM | IGROV-1 > 100 µM | A498 > 100 µM | COLO 205 > 100 µM | Malme-3M > 100 µM | HT-29 > 100 µM | T47D > 100 µM | MOLT-4 > 100 µM | RXF 393 > 100 µM | SK-MEL-5 > 100 µM

O=[N+]([O-])c1cccnc1-n1cnc2ccccc21
inactive: TK-10 > 100 µM | SK-MEL-2 > 100 µM | SK-MEL-28 > 100 µM | Hs-578T > 100 µM | SNB-75 > 100 µM | SF-539 > 100 µM | NCI-H460 > 100 µM | IGROV-1 > 100 µM | A498 > 100 µM | OVCAR-3 54.6 µM | COLO 205 > 100 µM | Malme-3M > 100 µM | HT-29 > 100 µM | T47D > 100 µM | MOLT-4 > 100 µM | RXF 393 > 100 µM | SK-MEL-5 > 100 µM
> 100 µM: HCT-15

Cc1ccc(S(=O)(=O)N2CC2CCCCC=O)cc1 (stereo not drawn)
inactive: TK-10 > 100 µM | SK-MEL-2 > 100 µM | SK-MEL-28 > 100 µM | UO-31 85.5 µM | Hs-578T 44.3 µM | SN12C > 100 µM | SNB-75 > 100 µM | IGROV-1 80.9 µM | A498 > 100 µM | OVCAR-3 > 100 µM | COLO 205 > 100 µM | Malme-3M > 100 µM | HT-29 26.8 µM | T47D > 100 µM | MOLT-4 37.4 µM | RXF 393 > 100 µM | SK-MEL-5 54.2 µM
> 100 µM: HCT-15

O=C(Cn1c(=O)oc2ccc(C(=O)c3ccc(F)cc3)cc21)c1ccccc1
> 100 µM: HCT-15
inactive: TK-10 > 100 µM | SK-MEL-2 > 100 µM | SK-MEL-28 > 100 µM | UO-31 25.7 µM | Hs-578T > 100 µM | SN12C > 100 µM | SNB-75 > 100 µM | SF-539 > 100 µM | NCI-H460 53.5 µM | IGROV-1 > 100 µM | A498 21 µM | COLO 205 66.2 µM | Malme-3M > 100 µM | HT-29 42.7 µM | T47D 93.5 µM | MOLT-4 42.4 µM | RXF 393 > 100 µM | SK-MEL-5 48 µM

COC(=O)C1=C(O)C(C(=O)OC)[C@]2(O)[C@H](C(=O)OC)[C@H]1C[C@@H](c1cccc(OC)c1)[C@H]2C(=O)OC (stereo partly drawn)
26.3 µM: HCT-15
inactive: TK-10 34 µM | SK-MEL-2 17.7 µM | SK-MEL-28 37.6 µM | UO-31 13.9 µM | Hs-578T 18.7 µM | SN12C 22.9 µM | SNB-75 27.5 µM | SF-539 32.3 µM | NCI-H460 22.2 µM | IGROV-1 39 µM | A498 21.4 µM | COLO 205 46.1 µM | Malme-3M 24.5 µM | HT-29 34.9 µM | T47D 30.5 µM | MOLT-4 20.4 µM | RXF 393 18.8 µM | SK-MEL-5 23.5 µM

CC#CC#C/C=C1\C=CC2(OC=CC2OC(C)=O)O1 (stereo not drawn)
inactive: TK-10 34 µM and 28.1 µM | UO-31 15.5 µM and 18.4 µM | Hs-578T 27.4 µM | SN12C 15.7 µM and 16.5 µM | SNB-75 38.3 µM and 24.9 µM | SF-539 25.5 µM and 20.7 µM | NCI-H460 32.3 µM and 21.7 µM | IGROV-1 > 42.9 µM and 42 µM | A498 47.6 µM and 80.9 µM | OVCAR-3 32.2 µM | COLO 205 15 µM and 16.4 µM | Malme-3M 24.8 µM and 26.4 µM | HT-29 16.1 µM and 22.4 µM | T47D 24.1 µM | RXF 393 12.6 µM | SK-MEL-5 17.9 µM

CN(C)CCNC(=O)c1nc([N+](=O)[O-])cn1C
inactive: TK-10 > 100 µM | SK-MEL-2 > 100 µM | SK-MEL-28 > 100 µM | UO-31 > 100 µM | Hs-578T > 100 µM | SN12C > 100 µM | SNB-75 > 100 µM | SF-539 > 100 µM | NCI-H460 > 100 µM | IGROV-1 > 100 µM | A498 > 100 µM | OVCAR-3 > 100 µM | COLO 205 > 100 µM | Malme-3M > 100 µM | HT-29 > 100 µM | T47D > 100 µM | MOLT-4 > 100 µM | SK-MEL-5 > 100 µM
> 100 µM: HCT-15

CCN(CC)CC(=O)Nc1c(C(N)=O)nnn1Cc1cc(Cl)c(C(=O)c2ccc(Cl)cc2)c(Cl)c1
16.6 µM: HCT-15
inactive: TK-10 22.8 µM | SK-MEL-2 14.9 µM | SK-MEL-28 18.5 µM | UO-31 13.7 µM | Hs-578T 14.3 µM | SN12C 22.6 µM | SNB-75 21 µM | SF-539 16.5 µM | IGROV-1 21.4 µM | A498 37.9 µM | OVCAR-3 16.9 µM | COLO 205 16.9 µM | HT-29 19.6 µM | T47D 15.9 µM | MOLT-4 16.3 µM | RXF 393 10.4 µM | SK-MEL-5 16.4 µM

C(#C[C@@]12CCC[C@@H]1N(Cc1ccccc1)CO2)c1ccc2c(c1)OCO2
inactive: SK-MEL-2 > 100 µM | SK-MEL-28 > 100 µM | UO-31 > 100 µM | Hs-578T 65 µM | SN12C > 100 µM | SNB-75 > 100 µM | SF-539 > 100 µM | NCI-H460 > 100 µM | A498 > 100 µM | OVCAR-3 > 100 µM | COLO 205 > 100 µM | Malme-3M > 100 µM | HT-29 > 100 µM | T47D > 100 µM | MOLT-4 > 100 µM | RXF 393 > 100 µM
> 100 µM: HCT-15
